Source: article PMC10526199 (Biomolecules, 2023)
pIC50: −log10 of the molar value.

Tests used:
HDAC1 = settings: cited from earlier work
HDAC2 = settings: cited from earlier work
HDAC8 = settings: cited from earlier work
HDAC3 = settings: cited from earlier work
3xTg-AD mice [1] = assay: Behavior tests (NOR and battery) in 3xTg-AD mice; type: in vivo, mouse; settings: 0.01 mg/kg oral gavage 5 days a week
Text: (§1) Male and female triple-transgenic AD (3xTg-AD) mice from the NIH-supported Mutant Mouse Resource & Research Centers (MMRRC) were purchased through the Jackson Laboratory (Farmington, CT, USA). Mice were housed four animals per cage in an AAALAC-accredited animal facility at the University of Miami Miller School of Medicine. All experiments were approved by the University of Miami Miller School of Medicine Institutional Animal Care and Use Committee (IACUC).
(§2) Formulations were made fresh weekly and sonicated briefly to mix. Beginning at 4 months of age (prior to disease development), mice were treated 5 days a week for 9 months.
A series of behavior tests intended to test motor coordination, anxiety, spatial learning, and reference memory was performed as previously performed by our lab. Motor coordination was assessed at 11 months of age using rotarod. Anxiety was assessed by open field at 7 months and elevated O-maze at 11 months. […]
1. […] Motor coordination was assessed by the latency to fall on the very first trial between treatment groups. […]
3. […] Arm entries were recorded and percent of spontaneous alternations was calculated. […]
4. […] Distance traveled, velocity of movement within the arena, and time in center versus periphery were recorded and analyzed. Anxiety- related behavior is assessed by the duration spent in the center of the field versus the periphery. […]

3xTg-AD mice [2] = assay: Intraperitoneal glucose tolerance testing (GTT) in 3xTg-AD mice; type: in vivo, mouse; settings: 10 months of age, 0.01 mg/kg oral gavage 5 days a week
Text: as §1, §2
(§3) Mice underwent intraperitoneal (i.p.) glucose tolerance testing (GTT) at 10 months of age, and insulin tolerance testing (ITT) at 12 months of age. For both tests, mice were food fasted 6 h prior to testing, with access to water. For GTT, mice were injected with 1.5 g/kg body weight glucose diluted in saline. For ITT, mice were injected with 0.8 U/kg body weight insulin. For both tests, blood glucose was measured from a tail prick by a glucometer (Bayer; Leverkusen, Germany) at 0, 15, 30, 60, 90, and 120 min.

3xTg-AD mice [3] = assay: Insulin tolerance testing (ITT) in 3xTg-AD mice; type: in vivo, mouse; settings: 12 months, 0.01 mg/kg oral gavage 5 days a week
Text: as §1, §2, §3

[4] = test system: Human Aβ1–42, Aβ1–40, total tau, phosphorylated-tau Serine-396, phosphorylated-tau Threonine-181; assay: ELISA for tau and Aβ species in brain tissue of 3xTg-AD mice; type: in vivo, mouse
Text: as §1, §2
(§4) At 13 months of age, mice were anaesthetized with isoflurane and euthanized via cardiac puncture. The brain was extracted and quickly dissected on ice, and snap-frozen in liquid nitrogen. The samples were stored at −80 °C until processed. For each mouse, brain regions from one hemisphere were used for RNA extraction and qPCR and sections from the other hemisphere were used for protein extraction and ELISAs.
Protein lysates were prepared by sonicating tissue in M-PER Mammalian Protein Extraction Reagent (Thermo Fisher Scientific; Waltham, MA, USA) supplemented with protease and phosphatase inhibitor (Thermo Fisher Scientific). Total protein was quantified using Pierce BCA Protein Assay Kit (Thermo Fisher Scientific). Human Aβ1–42, Aβ1–40, total tau, phosphorylated-tau Serine-396, and phosphorylated-tau Threonine-181 were measured in brain tissue by enzyme-linked immunosorbent assay (ELISA; Invitrogen, Thermo Fisher Scientific), and measured using the EnVision® multimode plate reader (Perkin Elmer; Waltham, MA, USA).

[5] = test system: differentially expressed genes; assay: NanoString nCounter Mouse Neuropathology Panel and Ingenuity Pathway Analysis, ERC RNA of 3xTg-AD mice; type: in vivo; settings: for DEGs decreased compared to vehicle / DEGs increased compared to vehicle / significant differentially expressed genes (DEG) compared to vehicle: ERC, 0.01 mg/kg oral gavage 9 months; for significant differentially expressed genes (DEG) compared to vehicle: Q value < 0.01; for most pathways incl. neuroinflammation signaling and amyloid processing pathway, vs vehicle: Ingenuity Pathway Analysis
Text: as §1, §2, §4
The NanoString Technologies nCounter® Mouse Neuropathology Panel was used to assess ERC RNA. This panel screens expression of 770 genes specific for neurodegeneration. We also included a custom 30-gene spike-in code set to include specific genes of interest. Assays were performed using the NanoString protocols, and data were normalized in nSolver® analysis software v 2.0.
Heatmaps were created with Morpheus Software (accessed on 20 February 2022; software.broadinstitute.org/Morpheus). Ingenuity Pathway Analysis (Qiagen) was used to run comparison analyses of differentially regulated pathways between male and female animals.

Adam10, Slc2a1, Slc2a3 = assay: RT-qPCR of AD- and glucose metabolism-related genes in brain of 3xTg-AD mice; type: in vivo, mouse; settings: 0.01 mg/kg oral gavage 9 months
Text: as §1, §2, §4
RNA was isolated from tissue using TRIzol® reagent (Life Technologies, Thermo Fisher Scientific) and a Qiagen RNeasy® Mini Kit (Qiagen; Hilden, Germany). RNA concentrations and quality were determined using NanoDrop 2000 UV-Vis Spectrophotometer (Thermo Fisher Scientific). cDNA was created using qScript cDNA Synthesis kit (Quantabio; Beverly, MA, USA). RT-qPCR was run using TaqMan 2-step RT-qPCR reagents (Thermo Fisher Scientific) on the QuantStudio Flex RT-qPCR system (Applied Biosystems, Thermo Fisher Scientific). Fold-change in gene expression relative to non-transduced controls were normalized. Results presented are based on fold-change using the 2^(−ΔΔCt) method.

HDAC10 = settings: cited from earlier work
[6] = cited from earlier work
[7] = test system: histone H3K27 acetylation; settings: 0.1 mg/kg, mouse model of immune thrombocytopenia; cited from earlier work
[8] = PFC, 0.01 mg/kg oral gavage 5 days a week for 9 months
[9] = hippocampus, females, 0.01 mg/kg oral gavage 5 days a week for 9 months
[10] = hippocampus, males, 0.01 mg/kg oral gavage 5 days a week for 9 months

CC(=O)Nc1ccc(C(=O)Nc2ccccc2N)cc1 [Tacedinaline]
pIC50 (HDAC2): 6.05
pIC50 (HDAC3): 5.92
inhibition of HDAC8 (HDAC8): not reported to inhibit HDAC8

Nc1cc(F)ccc1NC(=O)c1ccc(CNC(=O)/C=C/c2cccnc2)cc1 [chidamide]
NOR: time exploring novel vs familiar object compared to vehicle (3xTg-AD mice [1]; 10-month-old males): longer time exploring the novel object
overall behavior data (anxiety, learning, memory) (3xTg-AD mice [1]; males and females): do not reach the appropriate effect size to distinguish any meaningful results
glucose tolerance vs vehicle (3xTg-AD mice [2]; females): trend towards improved glucose tolerance
glucose tolerance vs vehicle (3xTg-AD mice [2]; males): significant improvement in glucose tolerance
insulin tolerance vs vehicle (3xTg-AD mice [3]; females): No significant differences
insulin tolerance vs vehicle (3xTg-AD mice [3]; males): No significant differences
tau phosphorylated at serine 396 (S396) vs vehicle ([4]; PFC, females, 0.01 mg/kg oral gavage 5 days a week for 9 months): no significant difference
tau phosphorylated at serine 396 (S396) vs vehicle ([4]; PFC, males, 0.01 mg/kg oral gavage 5 days a week for 9 months): significantly greater
Aβ-40 levels, treated females compared to treated males [4, 8]: greater in chidamide-treated females compared to males
PFC Aβ-42 change with treatment [4, 8]: a corresponding decrease in PFC Aβ-42 was not observed
progression of AD-like pathology ([4]; chronic, low-dose 0.01 mg/kg, 3xTg-AD mouse): does not appear to significantly alter progression of AD-like pathology
tau phosphorylated at threonine 181 (T181) vs vehicle [4, 9]: trend for decreased levels
total tau levels vs vehicle [4, 9]: did not show a significant difference
tau phosphorylated at threonine 181 (T181) vs vehicle [4, 10]: trend for decreased levels
total tau levels vs vehicle [4, 10]: significantly lower levels of total tau
Aβ-42 levels, treated females compared to treated males ([4]; hippocampus, 0.01 mg/kg oral gavage 5 days a week for 9 months): significantly greater in the hippocampus of female- compared to male-treated mice
DEGs decreased compared to vehicle ([5]; females): 6
DEGs increased compared to vehicle ([5]; females): 11
significant differentially expressed genes (DEG) compared to vehicle ([5]; females): 17
most pathways incl. neuroinflammation signaling and amyloid processing pathway, vs vehicle ([5]; females): downregulated
DEGs decreased compared to vehicle ([5]; males): 41
DEGs increased compared to vehicle ([5]; males): 83
significant differentially expressed genes (DEG) compared to vehicle ([5]; males): 124
most pathways incl. neuroinflammation signaling and amyloid processing pathway, vs vehicle ([5]; males): upregulated
Adam10 expression vs vehicle (Adam10, Slc2a1, Slc2a3; PFC, females): significantly greater
Adam10 expression vs vehicle (Adam10, Slc2a1, Slc2a3; PFC, males): trend for increase
Adam10 expression vs vehicle (Adam10, Slc2a1, Slc2a3; hippocampus): no difference was observed
Slc2a1 (GLUT1) expression vs vehicle (Adam10, Slc2a1, Slc2a3; males, hippocampus): trend for an increase
Slc2a3 (GLUT3) expression vs vehicle (Adam10, Slc2a1, Slc2a3; males, hippocampus): significant increase
inhibition of HDAC1 (HDAC1): low nanomolar range
inhibition of HDAC2 (HDAC2): low nanomolar range
inhibition of HDAC3 (HDAC3): low nanomolar range
inhibition of class IIB HDAC10 (HDAC10): low nanomolar range
blood–brain barrier crossing [6]: crosses the blood–brain barrier
histone H3K27 acetylation [7]: modulation of histone H3K27 acetylation occurred at this low dose
